Measured values as given in US7863323B1, “Flavonols” (The University of Melbourne, priority 2006, dated 2011).
Entries after “also recorded” stand apart in the source; their conditions may differ. Read-outs that look alike come from different tables or passages of the source.

Columns and labels:
[1] = system: rat isolated thoracic aorta (endothelium-intact aortic rings), PE-induced contractions; assay: Effect of flavonols on phenylephrine-induced vasoconstriction (organ bath); assay type: cell-based; conditions: FIG. 1a, compared with diOHF, qualitative
From the text: (§1) Vascular activity can be tested in standard organ bath assays using rat isolated thoracic aorta. The synthesized flavonols were first assayed for their ability to inhibit contractions induced by phenylephrine (PE), since it has been previously shown that flavonols can act as functional antagonists of PE. Next, the efficacy of the various flavonols would be determined in a direct relaxation assay. […] It was expected that the flavonols should reduce the magnitude of PE-induced contractions in endothelium-intact aortic rings, thus reducing the maximum response (Rmax) for PE-induced contractions.
(§2) Male Sprague-Dawley rats (200-400 g) were euthanised by exposure to 80% CO2, 20% O2, and their chests opened to isolate the thoracic aortae. After the removal of superficial connective tissues, the aorta was cut into ring segments, of approximately 2-3 mm in length. The aortic rings were then mounted between two stainless steel wires, one of which was linked to an isometric force transducer connected to a chart recorder, and the other end anchored to a glass rod submerged in a standard 10 mL organ bath. The organ bath was filled with Krebs-bicarbonate solution [composition (mM): NaCl, 118.0; KCl, 4.7; KH2PO4, 1.2; MgSO4.7H2O, 1.2; glucose, 5.0; NaHCO3, 25.0; CaCl2.2H2O, 2.5]. The bath medium was maintained at 37° C., pH 7.4 and continuously aerated with 95% O2, 5% CO2.
Aortic rings were equilibrated for 1 h at a resting tension of 1 g, then were precontracted with an isotonic, high potassium physiological salt solution (KPSS) in which all of the NaCl of the normal Krebs solution was replaced with KCl (122.7 mM), so as to achieve maximal contraction. The solution was then washed out and replaced with normal Krebs solution. […]
Aortic rings were incubated with a β-adrenoceptor antagonist, propranolol (10^−5 M), and either vehicle or flavonol (10^−4-10^−5 M) for 15 min before cumulative doses of phenylephrine (10^−9-10^−4.5 M) were added to generate a concentration-response curve to phenylephrine. Contraction responses were expressed as a percentage of KPSS-induced tension.

[2] = system: superoxide (NADPH oxidase-driven) in isolated rat aortic rings; assay: Lucigenin-enhanced chemiluminescence assay of superoxide in isolated aortic rings; assay type: cell-based; conditions: rat aortic rings incubated with NADPH; FIG. 2; compared with diOHF; qualitative
Protocol: Since the vascular activity of the synthesized flavonols was attenuated, it was of great interest to test these compounds for antioxidant activity. Antioxidant activity can be assessed in a tissue-based lucigenin-enhanced chemiluminescence assay. Isolated rat aortic rings were incubated with NADPH and the various flavonols. NADPH, a substrate for NADPH oxidase in the vasculature, increases superoxide production. Superoxide that is produced reacts with lucigenin, leading to the emission of photons, which can be quantified to give a measure of superoxide levels.
Superoxide concentrations were measured in isolated aortic rings by lucigenin-enhanced chemiluminescence. Prior to assaying, the aortic rings were incubated at 37° C. for 1 h in Krebs-EPES buffer containing DETCA (3×10^−5 M), which inactivates superoxide dismutase, NADPH (10^−4 M) and either vehicle, succinamic acid-substituted flavonol (10^−4 or 10^−5 M) or diOHF (10^−4 or 10^−5 M). Assay solutions consisting of lucigenin (5×10^−6 M), NADPH (10^−4 M) and either vehicle (DMSO), succinamic acid-substituted flavonol (10^−4 or 10^−5 M) or 3′,4′-dihydroxyflavonol (diOHF, 10^−4 or 10^−5 M), as a positive control, were prepared in Krebs-HEPES buffer [composition (mM): NaCl, 99.0; KCl, 4.7; KH2PO4, 1.0; MgSO4.7H2O, 1.2; glucose, 11.0; NaHCO3, 25.0; CaCl2.2H2O, 2.5; Na-HEPES, 20.0]. 300 μL aliquots of the assay solution were placed into separate wells on a 96-well Optiplate, which was loaded into a TopCount single photon counter (Packard Bioscience) to determine the background emission (12 cycles). After background counting was completed, one aortic ring was added per well, and photon emission was counted (12 cycles). Superoxide levels were reported as a percentage of photon emission for +NADPH control. At the conclusion of the assay, the aortic rings were dried for 48 h at 80° C. for normalization of superoxide production to dry tissue weight.
The results are expressed as the mean±s.e. mean and n indicates the number of experiments (rats). […]

[3] = system: rat isolated thoracic aorta (aortic rings); assay: Vasorelaxation (direct relaxation assay) in precontracted aortic rings; assay type: cell-based; conditions: for vasorelaxation activity in the relaxation assay: FIG. 1b, qualitative; for Emax: read-out: Rmax (%) maximum response in the relaxation assay
From the text: as §1, §2
Aortic rings were equilibrated for 1 h at a resting tension of 1 g, then were precontracted with an isotonic, high potassium physiological salt solution (KPSS) in which all of the NaCl of the normal Krebs solution was replaced with KCl (122.7 mM), so as to achieve maximal contraction. The solution was then washed out and replaced with normal Krebs solution. After re-equilibration, the rings were submaximally contracted with phenylephrine (PE, 10^−8-10^−7 M) and endothelial integrity was tested by a single dose of acetylcholine (Ach, 10^−5 M). Only rings that responded to Ach (≧90% relaxation) were judged endothelium intact and were used in the subsequent experiments. The aortic rings were then re-equilibrated (15 min) before the subsequent experiment.
Aortic rings were precontracted submaximally with phenylephrine (10^−8-10^−7 M) and the thromboxane mimetic, 9,11-dideoxy-9α,11α-epoxymethano-prostaglandin F2α (U46619, 10^−10-10^−9 M) to approximately 50% of KPSS-induced contraction. After stabilization of the contraction, cumulative doses of the flavonol or vehicle (10^−10-10^−4 M) were added to generate a concentration-response curve. Relaxant responses were expressed as a percentage of the precontraction tension.
The results are expressed as the mean±s.e. mean and n indicates the number of experiments (rats). Relaxation concentration-response curves for diOHF were computer fitted to a sigmoidal curve using non-linear regression (Prism version 4) to enable calculation of pEC50 of the flavonols. […] Maximum relaxation responses were compared using a one way analysis of variance (ANOVA) with post-hoc multiple comparison using Newman-Keuls test. Superoxide levels were compared using a one way analysis of variance (ANOVA) with post hoc multiple comparison using Dunnett's test.

[4] = Solubility of succinamic acid flavonols in 0.1 M Na2CO3 solution; assay type: physicochemical; conditions: for maximum concentrations attained: in 0.1 M Na2CO3 solution; for solubility in comparison with the unmodified moiety: qualitative
Protocol: Acetylcholine perchlorate was obtained from BDH Chemicals (Poole, Dorset, England). Phenylephrine and propranolol was purchased from Sigma-Aldrich Pty. Ltd. (Castle Hill, NSW, Australia). DiOHF was purchased from Indofine Chemical Co. Inc. (Belle Mead, N.J., U.S.A.). All other flavonols were synthesized in this study. […] was purchased from Cayman Chemical (Ann Arbor, Mich., U.S.A.). All chemicals were dissolved in distilled water, except the following. DiOHF was dissolved in 10% dimethyl sulphoxide (DMSO), 90% methanol, with subsequent dilutions in 50% methanol (10^−3 M), and distilled water (10^−4-10^−7 M). Succinamic acid-substituted flavonols were dissolved in 0.1 M Na2CO3 as a stock solution (B and C at 10^−1 and D at 10^−2 M), and further diluted in distilled water as required.

[5] = rat aortic rings precontracted with phenylephrine and U46619, percentage of precontraction tension, mean ± s.e. mean

Row | SMILES | inhibition of PE-induced contractions (vascular activity) [1] | antioxidant activity (superoxide levels) [2] | vasorelaxation activity in the relaxation assay [3] | Emax [3, 5] | maximum concentrations attained [4] | solubility in comparison with the unmodified moiety [4] | Emax ([3]; Rattus norvegicus) | EC50 ([3]; Rattus norvegicus, read-out: pEC50 (relaxation) (converted))
1 | O=C(O)CCC(=O)Nc1ccc2oc(-c3ccc(O)cc3)c(O)c(=O)c2c1 [C, 4′-Hydroxy-6-(hydroxycarbonylethylcarbonylamino)flavonol] | less effective than diOHF | little effect | weak vasorelaxation activity | 80 ± 5% | 10^−1 M | improved solubility |  | 
2 | O=c1c(O)c(-c2ccc(O)c(O)c2)oc2ccccc12 [diOHF, 3′,4′-dihydroxyflavonol, reference compound] |  |  |  |  |  |  | 105 ± 2% | 4.68 µM
3 | O=C(O)CCC(=O)Nc1ccc2oc(-c3ccc(O)c(O)c3)c(O)c(=O)c2c1 [D, 3′,4′-Dihydroxy-6-(hydroxycarbonylethylcarbonylamino)flavonol] | less effective than diOHF; also recorded: vascular activity was completely abolished | moderate to good antioxidant activity; also recorded: superoxide levels were substantially reduced | slight contractions were observed at high concentrations | -25 ± 3% | 10^−2 M | improved solubility |  | 
4 | O=C(O)CCC(=O)Nc1ccc2oc(-c3ccccc3)c(O)c(=O)c2c1 [B, 6-(Hydroxycarbonylethylcarbonylamino)flavonol] | less effective than diOHF | moderate to good antioxidant activity | weak vasorelaxation activity | 47 ± 2% | 10^−1 M | improved solubility |  | 
